Assay results: patent US8198293B2, “Oxymatrine compositions and related methods for treating and preventing chronic infectious diseases” (priority 2008, dated 2012)

How the values were obtained:
enterovirus = test: Case report: acute enterovirus infection of the gastrointestinal tract; type: in vivo, human; conditions: Example 10 patient, 200 mg bid, after ten days
Excerpt: A person developed subacute onset of severe fatigue, nausea, anorexia and progressive weight loss of 20 pounds following an upper respiratory infection.

coxsackievirus B = conditions: in vitro, cell cultures; mechanism not defined; cited from earlier work
[1] = tested on: chronic enterovirus infection / chronic fatigue; test: Case reports: treatment of chronic fatigue (Examples 2-5); type: in vivo, human
Procedure: A person with episodes of diarrhea while traveling to Tonga developed severe respiratory infection soon thereafter. The symptoms consisted of fevers to 105° F., night sweats, diffuse myalgia, tachycardia, fatigue, sinus congestion and cough, and unresponsiveness to antibiotics. The patient developed profound fatigue thereafter and went on total disability three months after the onset of symptoms. Initial Coxsackie B virus (CBV) 3, CVB4 and echovirus 9 antibody titers were 1:320, 1:160, 1:80 (normal <1:10), respectively.
The patient could not work for the next 18 months. They were started on oxymatrine at 300 mg twice a day (bid). After taking oxymatrine for two months, they were able to take short walks, but still exhausted after one hour of activity requiring five hour naps. At the end of three months of therapy, they started having fevers of 104-105° F. for several days with marked decrease in diffuse myalgia. […] CVB3, CVB4 and echovirus antibody three months after therapy were 1:160, 1:160 and 1:20, respectively.
A person who had recurrent episodes of debilitating fatigue became totally incapacitated after approximately 17 years. […] They went into remission but relapsed nine months later after developing a minor upper respiratory infection. They improved minimally after several months of bed rest, but was barely able to work six hours per day. They had brain fog, myalgia ( 7/10 pain) and was barely able to walk even 1-2 blocks.
Three days after taking oxymatrine at a dose of 300 mg bid, the myalgia intensified ( 10/10 pain), especially one hour after taking the pills. One week after starting oxymatrine, routine laboratory tests including CBC, chemistry panel and creatine phosphokinase (CPK) were normal. They continued having significant fatigue and myalgia for the next three weeks, but the symptoms resolved one week after stopping the medication. Mild increase in myalgia recurred three days after resuming oxymatrine, but resolved after continuing the medication for the next two weeks. The patient felt well at the end of three months with minimal discomfort in a few muscle groups.
Severe myalgia recurred after resuming vigorous exercise for three weeks while taking oxymatrine. They had to stop exercise for the two months allowing cessation of myalgia. After taking oxymatrine for six months, the patient felt well. Over the next six months after stopping the medication, the patient continuously performed heavy physical activities without significant difficulty. After developing another episode of upper respiratory symptoms, their symptoms relapsed. They have resumed oxymatrine but experienced increasing myalgia as the fatigue improved.
A person with a known history of frequent respiratory infections and vasovagal syncope developed respiratory infection, which was followed by bedridden fatigue. Enteroviral protein was detected in the stomach biopsy consistent with chronic enterovirus infection. […] After vigorous exercise, they would still have relapses of bedridden fatigue for one day but continued to work 10-12 hours per day for the next 12 months, walking two miles per day. Laboratory tests were normal while on therapy.
A person developed debilitating fatigue, sore throat, oral ulcers, vertigo, headaches and cognitive dysfunction two months after having a flu-like illness. […] Approximately four years later, the patient started taking oxymatrine. After an initial increase of gastrointestinal symptoms for the first two weeks, the patient tolerated 500 mg per day of oxymatrine.
The symptoms continued for two weeks and resolved after stopping oxymatrine. […] They continued to improve for 12 months after taking the medication.

chronic hepatitis B = conditions: oral, after one year of treatment; cited from earlier work
[2] = tested on: cytokine gene expression (Th1/Th2); test: Cytokine gene expression study before and during/after oxymatrine; type: in vivo, human
Excerpt: FIG. 4 graphically illustrates a cytokine gene expression study before and after oxymatrine (RQ is the gene expression ratio).
FIG. 5 graphically illustrates cytokine gene expression of interleukin-12P35+P40/interleukin-10 in tissue from CFS patients at the start of (pre-oxymatrine) and during oxymatrine therapy (n=17).
A cytokine gene expression study on blood samples before (Sample 2) and after (Sample 3) taking oxymatrine for 15 months in one patient, is graphically illustrated in FIG. 4. […] FIG. 5 illustrates that neutralizing antibodies CBV 3 and CBV 4 were obtained serially over a three year period (performed by ARUP laboratory, Salt Lake City, Utah).

[3] = blood samples of one patient before and after 15 months of oxymatrine (FIG. 4)

Q: With `O=C1CCC[C@@H]2[C@H]3CCC[N@+]4([O-])CCC[C@@H](CN12)[C@@H]34` [oxymatrine] as the compound, how does the clinical outcome (enterovirus) read?
A: resumed their normal activity

Q: What about the “growth inhibition of coxsackievirus B” value (coxsackievirus B) of the same compound?
A: growth inhibition

Q: And the relapse after therapy ([1]; Example 2 patient)?
A: had not relapsed for at least one year

Q: What about the clinical outcome ([1]; Example 2 patient, three months after finishing the medication) of the same compound?
A: went back to full-time work

Q: And the “laboratory studies including CBC and complete chemistry panel during therapy” value ([1]; Example 2 patient, calcium resolved after stopping hydrochlorothiazide)?
A: normal except mildly elevated calcium levels

Q: And the clinical outcome ([1]; Example 3 patient, after taking oxymatrine for six months)?
A: felt well

Q: What about the “routine laboratory tests including CBC, chemistry panel and CPK” value ([1]; Example 3 patient, one week after starting oxymatrine) of the same compound?
A: normal

Q: What about the myalgia pain score ([1]; Example 3 patient, three days after starting 300 mg bid, 7/10 before) of the same compound?
A: 10/10

Q: And the “laboratory tests while on therapy” value ([1]; Example 4 patient)?
A: normal

Q: And the tolerability ([1]; Example 4 patient)?
A: tolerated well without any adverse reactions

Q: What about the clinical outcome ([1]; Example 4 patient, after taking the medication for six weeks) of the same compound?
A: returned to full-time work

Q: What about the clinical outcome ([1]; Example 5 patient, three months later) of the same compound?
A: able to return to part-time work and regular exercise

Q: What about the symptoms during therapy ([1]; Example 5 patient, two months on 500 mg per day, resolved after stopping oxymatrine) of the same compound?
A: severe diffuse ulcerations of the mouth mucosa, increasing headache, sinus congestion and severe myalgia

Q: And the overall cure rate (chronic hepatitis B)?
A: about 40%

Q: What about the “Th1 cytokines gene expression (interleukin-2, interleukin-12, interleukin-15)” value [2, 3] of the same compound?
A: significant increase

Q: And the “regulatory Th2 cytokine gene expression (interleukin-10)” value [2, 3]?
A: significant decrease

Q: What about the “increase of the interleukin-12P35+P40/interleukin-10 gene expression ratio” value ([2]; seven responders of n=17 CFS patients, pre-oxymatrine vs during therapy (FIG. 5)) of the same compound?
A: greater than 2 fold

Q: What about the “interleukin-12P35+P40/interleukin-10 gene expression ratio” value ([2]; ten non-responders of n=17 CFS patients (FIG. 5)) of the same compound?
A: remained the same or decreased
